Among the data in patent publication US10544103B2, “5-HT2 antagonists” (ANAMAR AB, priority 2015, dated 2020) are inhibition values, retold here.

The target of this test is T1, 5-HT2B receptor (Homo sapiens, UniProt P41595).
T1 construct: host or cells: CHO-K1
The experiment in a line: 5-HT2B receptor binding, 3H-LSD ligand displacement assay. The conditions noted are these: for inhibition at 0.01 µM: 0.01 uM compound; for inhibition at 0.1 µM: 0.1 uM compound; for inhibition at 1 µM: 1 uM compound; for inhibition at 0.001 µM: 0.001 uM compound. The procedure:
5-HT2B receptor binding (performed at Eurofins Panlabs Taiwan, Ltd.) to human receptor protein expressed in CHO-K1 cells was determined in a ligand displacement assay using ^3H-lysergic acid diethylamide (LSD) as radioligand and ketanserine as a standard reference compound. Data is presented as % displacement of radioligand at indicated compound concentrations, see Table 1 and Table 2.

What is called inhibition is the relative decrease from the control value, in per cent.

T1 sequence (P41595 whole entry): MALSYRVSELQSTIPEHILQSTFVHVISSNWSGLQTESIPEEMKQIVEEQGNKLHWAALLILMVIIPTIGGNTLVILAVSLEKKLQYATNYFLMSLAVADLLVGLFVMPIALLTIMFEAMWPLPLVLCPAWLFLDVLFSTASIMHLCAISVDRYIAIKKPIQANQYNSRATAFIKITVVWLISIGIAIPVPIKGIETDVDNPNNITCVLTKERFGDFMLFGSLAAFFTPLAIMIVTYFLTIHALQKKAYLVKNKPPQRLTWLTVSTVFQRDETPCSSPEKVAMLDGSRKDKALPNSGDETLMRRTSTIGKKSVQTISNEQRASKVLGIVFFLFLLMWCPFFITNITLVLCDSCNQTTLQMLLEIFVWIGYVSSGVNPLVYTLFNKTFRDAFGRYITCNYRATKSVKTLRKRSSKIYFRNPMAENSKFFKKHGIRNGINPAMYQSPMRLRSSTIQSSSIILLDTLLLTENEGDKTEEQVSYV

As for `COc1c(F)cccc1C1=NN(C(=N)N)CC1C` (centres unmarked) [Example 47, 3-(3-Fluoro-2-methoxyphenyl)-4-methyl-4,5-dihydro-1H-pyrazole-1-carboximidamide], the inhibition at 0.01 µM stood at 15%, the inhibition at 0.1 µM worked out at 68% and the inhibition at 1 µM is 92%.
For the compound `CC1CN(C(=N)N)N=C1c1cccc(F)c1O` (centres unmarked) [Example 48, 3-(3-Fluoro-2-hydroxyphenyl)-4-methyl-4,5-dihydro-1H-pyrazole-1-carboximidamide], the inhibition at 0.01 µM was 54%, the inhibition at 0.1 µM was 85% and the inhibition at 1 µM is 95%.
As for `COc1cc(F)ccc1C1=NN(C(=N)N)CC1C` (centres unmarked) [Example 49, 3-(4-Fluoro-2-methoxyphenyl)-4-methyl-4,5-dihydro-1H-pyrazole-1-carboximidamide], the inhibition at 0.01 µM amounted to 11%, the inhibition at 0.1 µM is 28% and the inhibition at 1 µM stood at 78%.
For `CC1CN(C(=N)N)N=C1c1ccc(F)cc1O` (centres unmarked) [Example 50, 3-(4-Fluoro-2-hydroxyphenyl)-4-methyl-4,5-dihydro-1H-pyrazole-1-carboximidamide], in that order: 42%, 87% and 96%.
For `COc1ccc(Cl)cc1C1=NN(C(=N)N)CC1C` (centres unmarked) [Example 51, 3-(5-Chloro-2-methoxyphenyl)-4-methyl-4,5-dihydro-1H-pyrazole-1-carboximidamide], in that order: 7%, 31% and 76%.
As to `CC1CN(C(=N)N)N=C1c1cc(Cl)ccc1O` (centres unmarked) [Example 52, 3-(5-Chloro-2-hydroxyphenyl)-4-methyl-4,5-dihydro-1H-pyrazole-1-carboximidamide], the inhibition at 0.01 µM was 34%, the inhibition at 0.1 µM worked out at 72% and the inhibition at 1 µM is 95%.
For `COc1c(Cl)cccc1C1=NN(C(=N)N)CC1C` (centres unmarked) [Example 53, 3-(3-Chloro-2-methoxyphenyl)-4-methyl-4,5-dihydro-1H-pyrazole-1-carboximidamide], in that order: 40%, 87% and 100%.
As to `CC1CN(C(=N)N)N=C1c1cccc(Cl)c1O` (centres unmarked) [Example 54, 3-(3-Chloro-2-hydroxyphenyl)-4-methyl-4,5-dihydro-1H-pyrazole-1-carboximidamide], the inhibition at 0.01 µM was determined as 81%, the inhibition at 0.1 µM is 95% and the inhibition at 1 µM was 101%.
With `CC1CN(C(=N)NCc2ccc(Cl)cc2)N=C1c1ccccc1O` (centres unmarked) [Example 55, N-(4-Chlorobenzyl)-3-(2-hydroxyphenyl)-4-methyl-4,5-dihydro-1H-pyrazole-1-carboximidamide], the inhibition at 0.001 µM came out at 16% and the inhibition at 0.01 µM is 67%.
`CC1CN(C(=N)NCc2ccccc2Cl)N=C1c1ccccc1O` (centres unmarked) [Example 56, N-(2-Chlorobenzyl)-3-(2-hydroxyphenyl)-4-methyl-4,5-dihydro-1H-pyrazole-1-carboximidamide]: the inhibition at 0.001 µM is 52% and the inhibition at 0.01 µM came out at 95%.
For `CC1CN(C(=N)NCc2ccc(Cl)cc2Cl)N=C1c1ccccc1O` (centres unmarked) [Example 57, N-(2,4-Dichlorobenzyl)-3-(2-hydroxyphenyl)-4-methyl-4,5-dihydro-1H-pyrazole-1-carboximidamide], in that order: 21% and 78%.
`CC1CN(C(=N)NCc2ccc(Cl)c(Cl)c2)N=C1c1ccccc1O` (centres unmarked) [Example 58, N-(3,4-Dichlorobenzyl)-3-(2-hydroxyphenyl)-4-methyl-4,5-dihydro-1H-pyrazole-1-carboximidamide]: the inhibition at 0.001 µM was determined as 2% and the inhibition at 0.01 µM was 52%.
Consider `COc1ccc(CNC(=N)N2CC(C)C(c3ccccc3O)=N2)cc1` (centres unmarked) [Example 59, 3-(2-Hydroxyphenyl)-N-(4-methoxybenzyl)-4-methyl-4,5-dihydro-1H-pyrazole-1-carboximidamide], for which the inhibition at 0.001 µM amounted to 20% and the inhibition at 0.01 µM was found to be 74%.
The like results for `COc1ccc(CNC(=N)N2CC(C)C(c3ccccc3O)=N2)cc1OC` (centres unmarked) [Example 60, N-(3,4-Dimethoxybenzyl)-3-(2-hydroxyphenyl)-4-methyl-4,5-dihydro-1H-pyrazole-1-carboximidamide] were, in that order, 6% and 28%.
The like results for `COc1cc(CNC(=N)N2CC(C)C(c3ccccc3O)=N2)cc(OC)c1` (centres unmarked) [Example 61, N-(3,5-Dimethoxybenzyl)-3-(2-hydroxyphenyl)-4-methyl-4,5-dihydro-1H-pyrazole-1-carboximidamide] were, in that order, 13% and 36%.
For `COc1ccc(CNC(=N)N2CC(C)C(c3ccccc3O)=N2)cc1Cl` (centres unmarked) [Example 62, N-(3-chloro-4-methoxybenzyl)-3-(2-hydroxyphenyl)-4-methyl-4,5-dihydro-1H-pyrazole-1-carboximidamide], in that order: 27% and 72%.
For the compound `CC1CN(C(=N)N[C@H](C)c2ccccc2)N=C1c1ccccc1O` (stereo partly drawn) [Example 63, 3-(2-Hydroxyphenyl)-4-methyl-N—((R)-1-phenylethyl)-4,5-dihydro-1H-pyrazole-1-carboximidamide], the inhibition at 0.001 µM was 36% and the inhibition at 0.01 µM worked out at 81%.
As for `CC1CN(C(=N)N[C@@H](C)c2ccccc2)N=C1c1ccccc1O` (stereo partly drawn) [Example 64, 3-(2-Hydroxyphenyl)-4-methyl-N—((S)-1-phenylethyl)-4,5-dihydro-1H-pyrazole-1-carboximidamide], the inhibition at 0.001 µM came to 23% and the inhibition at 0.01 µM amounted to 43%.
For `CC1CN(C(=N)NCCc2ccccc2)N=C1c1ccccc1O` (centres unmarked) [Example 65, 3-(2-hydroxyphenyl)-4-methyl-N-phenethyl-4,5-dihydro-1H-pyrazole-1-carboximidamide], the inhibition at 0.001 µM came to 48% and the inhibition at 0.01 µM amounted to 89%.
Turning to `COc1ccc(C2=NN(C(=N)N)CC2C)c(OC)c1` (centres unmarked) [Example 66, 3-(2,4-Dimethoxyphenyl)-4-methyl-4,5-dihydro-1H-pyrazole-1-carboximidamide], the inhibition at 0.01 µM was determined as 5%, the inhibition at 0.1 µM amounted to 12% and the inhibition at 1 µM was found to be 41%.
Turning to `CC1CN(C(=N)N)N=C1c1ccc(O)cc1O` (centres unmarked) [Example 67, 3-(2,4-Dihydroxyphenyl)-4-methyl-4,5-dihydro-1H-pyrazole-1-carboximidamide], the inhibition at 0.01 µM stood at 9%, the inhibition at 0.1 µM was found to be 31% and the inhibition at 1 µM came to 72%.
Regarding `COc1cc(C(F)(F)F)ccc1C1=NN(C(=N)N)CC1C` (centres unmarked) [Example 68, 3-(2-Methoxy-4-(trifluoromethyl)phenyl)-4-methyl-4,5-dihydro-1H-pyrazole-1-carboximidamide], the inhibition at 0.1 µM worked out at 32% and the inhibition at 1 µM worked out at 86%.
In the case of `CC1CN(C(=N)N)N=C1c1ccc(C(F)(F)F)cc1O` (centres unmarked) [Example 69, 3-(2-Hydroxy-4-(trifluoromethyl)phenyl)-4-methyl-4,5-dihydro-1H-pyrazole-1-carboximidamide], the inhibition at 0.1 µM was 70% and the inhibition at 1 µM is 97%.
